From publication PMC8041284, “Tunable Methacrylamides for Covalent Ligand Directed Release Chemistry” (Journal of the American Chemical Society, 2021)

Molecular target: BTK (Homo sapiens, UniProt Q06187)
Assay: biochemical
Conditions: read-out: BTK inhibition (%)

BTK, sequence (Q06187 402-655 limits assumed): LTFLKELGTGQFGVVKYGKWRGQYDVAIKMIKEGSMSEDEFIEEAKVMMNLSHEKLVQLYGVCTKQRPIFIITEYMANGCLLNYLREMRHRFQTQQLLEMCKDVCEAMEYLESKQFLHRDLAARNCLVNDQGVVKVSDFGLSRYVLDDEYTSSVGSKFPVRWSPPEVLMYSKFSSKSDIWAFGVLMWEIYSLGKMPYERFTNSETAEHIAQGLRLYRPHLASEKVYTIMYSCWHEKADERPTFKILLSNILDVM

| Structure (SMILES) | inhibition at 10 µM |
| --- | --- |
| O=P1(NCCCl)OCCCN1CCCl (stereo not shown) [PCM-0086467] | -10.3% |
| C[C@@]12N[C@@H](Cc3ccccc31)c1ccccc12 [PCM-0086525] | -25.7% |

Same assay, conditions: read-out: BTK inhibition (%), 0.75 uM BTK, […] probe 3l, 15 min preincubation

| Structure (SMILES) | inhibition at 10 µM |
| --- | --- |
| CC(C(=O)O)c1ccc(C(=O)c2cccs2)cc1 (stereo not shown) [PCM-0086408] | -1.4% |
| CC(=O)OCC(=O)[C@@]12N=C(C)O[C@@H]1C[C@H]1[C@@H]3CCC4=CC(=O)C=C[C@]4(C)[C@H]3[C@@H](O)C[C@@]12C [PCM-0086410] | -7.6% |
| Cc1nnc(NS(=O)(=O)c2ccc(N)cc2)s1 [PCM-0086420] | -10.9% |
| CC(c1cc2ccccc2s1)N(O)C(N)=O (stereo not shown) [PCM-0086421] | -0.7% |
| Cc1c(Nc2ncccc2C(=O)O)cccc1C(F)(F)F [PCM-0086423] | -9% |
| COC(=O)C1=C(C)NC(C)=C(C(=O)OCC(C)C)C1c1ccccc1[N+](=O)[O-] (stereo not shown) [PCM-0086426] | 31.1% |
| COc1cc(C)c(/C=C/C(C)=C/C=C/C(C)=C/C(=O)O)c(C)c1C [PCM-0086430] | 10.9% |
| Nc1nc(N)nc(-c2cc(Cl)ccc2Cl)n1 [PCM-0086432] | 4.3% |
| Nc1nc(NC2CC2)c2ncn([C@H]3C=C[C@@H](CO)C3)c2n1 [PCM-0086436] | 9.4% |
| NS(=O)(=O)c1cc2c(cc1Cl)NC(C(Cl)Cl)NS2(=O)=O (stereo not shown) [PCM-0086441] | -14% |
| COc1ccc2cc(CCC(C)=O)ccc2c1 [PCM-0086446] | 7.6% |
| CC/C(=C(/CC)c1ccc(O)cc1)c1ccc(O)cc1 [PCM-0086456] | -26.5% |
| Oc1ccc(OCc2ccccc2)cc1 [PCM-0086466] | 8.6% |
| CO[C@@H]1[C@@H](OC(N)=O)[C@@H](O)[C@H](Oc2ccc3c(O)c(NC(=O)c4ccc(O)c(CC=C(C)C)c4)c(=O)oc3c2C)OC1(C)C [PCM-0086469] | 7% |
| CC(C(=O)O)c1ccc2c(c1)Cc1cccnc1O2 (stereo not shown) [PCM-0086477] | -11.7% |
| Cc1ncc([N+](=O)[O-])n1CC(C)O (stereo not shown) [PCM-0086479] | -3.9% |
| Nc1ccc(S(=O)(=O)Nc2ccccn2)cc1 [PCM-0086480] | -13.6% |
| CCCCCCCN(CC)CCCC(O)c1ccc(NS(C)(=O)=O)cc1 (stereo not shown) [PCM-0086483] | -17.1% |
| CCS(=O)(=O)CCn1c([N+](=O)[O-])cnc1C [PCM-0086486] | -4.7% |
| CCCC[N+]1(C)[C@@H]2CC(OC(=O)[C@H](CO)c3ccccc3)C[C@H]1[C@@H]1O[C@@H]12 (stereo partly shown) [PCM-0086491] | -17.9% |
| COc1cnc(NS(=O)(=O)c2ccc(N)cc2)nc1 [PCM-0086492] | 5.4% |
| CCc1c2c(nc3ccc(OC(=O)N4CCC(N5CCCCC5)CC4)cc13)-c1cc3c(c(=O)n1C2)COC(=O)[C@]3(O)CC [PCM-0086493] | 6.9% |
| CNC(=C[N+](=O)[O-])NCCSCc1csc(CN(C)C)n1 [PCM-0086495] | 2.1% |
| CCOC(=O)[C@H](CCc1ccccc1)N[C@@H](C)C(=O)N1Cc2ccccc2C[C@H]1C(=O)O [PCM-0086504] | -16.3% |
| Cc1ccnc(NS(=O)(=O)c2ccc(N)cc2)n1 [PCM-0086511] | 1.6% |
| COc1ccccc1OCC(O)CO (stereo not shown) [PCM-0086515] | -2.3% |
| Nc1[nH]c(=O)ncc1F [PCM-0086523] | -6.2% |

| Structure (SMILES) | inhibition at 10 µM |
| --- | --- |
| CCC(=O)O[C@]1(C(=O)CCl)[C@@H](C)C[C@H]2[C@@H]3CCC4=CC(=O)C=C[C@]4(C)[C@@]3(F)[C@@H](O)C[C@@]21C [PCM-0086533] | 3.4% |
| Cn1cc[nH]c1=S [PCM-0086540] | 14.8% |
| CC(O)(P(=O)(O)O)P(=O)(O)O [PCM-0086550] | -27.2% |
| C[n+]1ccccc1/C=N/O [PCM-0086551] | -18.5% |
| CC(COc1ccccc1)N(CCCl)Cc1ccccc1 (stereo not shown) [PCM-0086553] | 17.1% |
| O=c1cc(-c2ccc(O)c(O)c2)oc2cc(O)cc(O)c12 [PCM-0086559] | 84.8% |
| CN(C)CCOc1ccc(/C(=C(/CCCl)c2ccccc2)c2ccccc2)cc1 [PCM-0086582] | 4.1% |
| COc1ccc(-c2coc3cc(O)cc(O)c3c2=O)cc1 [PCM-0086643] | 2.3% |
| OCc1ccccc1O[C@@H]1O[C@H](CO)[C@@H](O)[C@H](O)[C@H]1O [PCM-0086703] | -7.6% |
| COc1ccc(-c2cc(=O)c3c(OC)c(OC)c(OC)c(OC)c3o2)cc1 [PCM-0086738] | -26.9% |
| O=C1N=C(O)CN1/N=C/c1ccc(-c2ccc([N+](=O)[O-])cc2)o1 [PCM-0086748] | 28% |
| O=C(O)C1=CO[C@@H](O[C@@H]2O[C@H](CO)[C@@H](O)[C@H](O)[C@H]2O)[C@@H]2C(CO)=CC[C@H]12 [PCM-0086855] | -2.8% |
| O=C(O)c1cc(O)c2c(c1)[C@@H]([C@H]1c3cc(C(=O)O)cc(O)c3C(=O)c3c(O[C@@H]4O[C@H](CO)[C@@H](O)[C@H](O)[C@H]4O)cccc31)c1cccc(O[C@@H]3O[C@H](CO)[C@@H](O)[C@H](O)[C@H]3O)c1C2=O [PCM-0086913] | 84.1% |
| O=c1c(O)c(-c2ccc(O)cc2)oc2cc(O)cc(O)c12 [PCM-0087037] | 67.7% |
| O=C(/C=C/c1ccc(O)c(O)c1)O[C@@H]1C[C@](O)(C(=O)O)C[C@@H](O)[C@H]1O [PCM-0087069] | -10.1% |
| COc1ccc(-c2coc3cc(O)ccc3c2=O)cc1 [PCM-0087244] | 0.8% |
| COC(=O)C1=CO[C@@H](O[C@@H]2O[C@H](CO)[C@@H](O)[C@H](O)[C@H]2O)[C@@H]2C(CO)=CC[C@H]12 [PCM-0087450] | -1.6% |
| COc1ccc(-c2cc(=O)c3c(O)cc(O[C@@H]4O[C@H](CO[C@@H]5O[C@@H](C)[C@H](O)[C@@H](O)[C@H]5O)[C@@H](O)[C@H](O)[C@H]4O)cc3o2)cc1O [PCM-0087491] | -5.1% |
| C[C@@H]1O[C@@H](OC[C@H]2O[C@@H](Oc3c(-c4ccc(O)c(O)c4)oc4cc(O)cc(O)c4c3=O)[C@H](O)[C@@H](O)[C@@H]2O)[C@H](O)[C@H](O)[C@H]1O [PCM-0087529] | -2.1% |
| O=C1c2c(O)cc(O)cc2O[C@H](c2ccc(O)c(O)c2)[C@H]1O [PCM-0087882] | 11% |
| COc1c2occc2cc2ccc(=O)oc12 [PCM-0087924] | -19.5% |
| COc1cc2c(cc1OC)C1Cc3ccc(OC)c(OC)c3CN1CC2 (stereo not shown) [PCM-0088127] | -14% |
| C[C@@H]1O[C@@H](O[C@H]2[C@H](Oc3cc(O)c4c(c3)O[C@H](c3ccc(O)cc3)CC4=O)O[C@H](CO)[C@@H](O)[C@@H]2O)[C@H](O)[C@H](O)[C@H]1O [PCM-0088327] | -7% |
| O=c1cc(-c2ccccc2)oc2cc(O)cc(O)c12 [PCM-0088446] | 34.2% |
| COc1cc(O)c2c(c1)C(=O)c1cc(C)cc(O)c1C2=O [PCM-0088700] | 11.1% |
| COc1cc([C@H]2Oc3cc([C@H]4Oc5cc(O)cc(O)c5C(=O)[C@@H]4O)ccc3O[C@@H]2CO)ccc1O [PCM-0088703] | 24.1% |
| O=C(CCc1ccc(O)cc1)c1c(O)cc(O)cc1O[C@@H]1O[C@H](CO)[C@@H](O)[C@H](O)[C@H]1O [PCM-0089058] | 4.7% |

| Structure (SMILES) | inhibition at 10 µM |
| --- | --- |
| O=C(O)C(O)Cc1ccc(O)c(O)c1 (stereo not shown) [PCM-0089145] | 18.7% |
| C[C@@H]1O[C@@H](Oc2c(-c3cc(O)c(O)c(O)c3)oc3cc(O)cc(O)c3c2=O)[C@H](O)[C@H](O)[C@H]1O [PCM-0089676] | -2.3% |
| C[C@@H]1C(=O)O[C@H]2C[C@@]34[C@H]5C[C@@H](C(C)(C)C)[C@]36[C@@H](OC(=O)[C@@H]6O)O[C@@]4(C(=O)O5)[C@]21O [PCM-0089814] | -7.8% |
| COc1ccc(O)cc1 [PCM-0090031] | 12.5% |
| Nc1ncnc2c1ncn2[C@@H]1O[C@H](CO)[C@@H](O)[C@H]1O [PCM-0090045] | 14% |
| CCN(CC)CCOc1ccc(C(=C(Cl)c2ccccc2)c2ccccc2)cc1 [PCM-0090069] | 13.2% |
| CC[C@@H](CO)NCCN[C@@H](CC)CO [PCM-0090100] | 29.6% |
| CN(C)c1ccc(C(=C2C=CC(=[N+](C)C)C=C2)c2ccc(N(C)C)cc2)cc1 [PCM-0090111] | 116% |
| NC(=O)c1ccc[n+]([C@@H]2O[C@H](COP(=O)([O-])OP(=O)(O)OC[C@H]3O[C@@H](n4cnc5c(N)ncnc54)[C@H](O)[C@@H]3O)[C@@H](O)[C@H]2O)c1 [PCM-0090146] | -13.6% |
| CC1=C(/C=C/C(C)=C/C=C/C(C)=C/C=C/C=C(C)/C=C/C=C(C)/C=C/C2=C(C)CCCC2(C)C)C(C)(C)CCC1 [PCM-0090171] | 24.7% |
| O=C(O)c1ccccc1O [PCM-0090179] | -16.3% |
| Nc1nc(=S)c2[nH]cnc2[nH]1 [PCM-0090185] | -1.6% |
| COc1c(C)c2c(c(O)c1C/C=C(\C)CCC(=O)O)C(=O)OC2 [PCM-0090203] | 19.3% |
| O=C(O)P(=O)(O)O [PCM-0090233] | 1.6% |
| CN(C)CCc1c[nH]c2ccc(Cn3cncn3)cc12 [PCM-0090241] | -3.1% |
| COc1cc2c(N3CCN(C(=O)Nc4ccc(OC(C)C)cc4)CC3)ncnc2cc1OCCCN1CCCCC1 [PCM-0090254] | -17% |
| CN1C(C(=O)Nc2ccccn2)=C(O)c2sc(Cl)cc2S1(=O)=O [PCM-0090258] | -0.9% |
| C#CCN[C@@H]1CCc2ccccc21 [PCM-0090264] | -9.3% |
| C[C@@H]1CC(=O)NN=C1c1ccc(NN=C(C#N)C#N)cc1 [PCM-0090272] | 21.8% |
| CCC(C)(C)c1ccc(CC(C)CN2C[C@@H](C)O[C@@H](C)C2)cc1 (stereo partly shown) [PCM-0090274] | -31.9% |
| COc1ccc(-c2ccc3cc(C(=O)O)ccc3c2)cc1C12CC3CC(CC(C3)C1)C2 [PCM-0090276] | 29% |
| Cc1ccc(Nc2c(F)cccc2Cl)c(CC(=O)O)c1 [PCM-0090280] | 6.9% |
| O=C(O)c1ccccc1 [PCM-0090294] | -1.6% |
| C/C=C/c1ccc(OC)cc1 [PCM-0090331] | 18.7% |
| COC(=O)[C@H](c1ccccc1Cl)N1CCc2sccc2C1 [PCM-0090332] | 2.3% |
| Cc1ccnc2c1NC(=O)c1cccnc1N2C1CC1 [PCM-0090346] | -3.1% |
